Molecular target: CDK-activating kinase assembly factor MAT1/Cyclin-H/Cyclin-dependent kinase 7 (Homo sapiens, UniProt P50613)
Experiment: n Vitro CDK7 (20 nM) Assay
Method: Compounds with potencies approaching the limit of detection of the assay (IC50 < 10 nM) were further assessed in a more sensitive fluorescence end-point assay. […] Absorbance at 340 nm was followed kinetically at an interval of 2 minutes for 8 hours.The assay was carried out with 100 μl reaction volume per well in a 384-well plate that was pre-spotted nanoliter volume of compounds by LabCyte Echo 555. Compound dilution plates were made by 2-fold (could vary upon necessity) dilution in DMSO for 11 concentrations plus a DMSO control of uninhibited reaction. 2x substrate and coupling reagent mixture was added to the assay plate followed by an addition of an equal volume of 40 nM CDK7/Cyclin H/MAT-1 complex. After mixing, assay plates were spun at 2000 rpm for 3 minutes and then transferred to the plate reader for data collection.

Sequence of CDK-activating kinase assembly factor MAT1/Cyclin-H/Cyclin-dependent kinase 7 (P51946 whole entry): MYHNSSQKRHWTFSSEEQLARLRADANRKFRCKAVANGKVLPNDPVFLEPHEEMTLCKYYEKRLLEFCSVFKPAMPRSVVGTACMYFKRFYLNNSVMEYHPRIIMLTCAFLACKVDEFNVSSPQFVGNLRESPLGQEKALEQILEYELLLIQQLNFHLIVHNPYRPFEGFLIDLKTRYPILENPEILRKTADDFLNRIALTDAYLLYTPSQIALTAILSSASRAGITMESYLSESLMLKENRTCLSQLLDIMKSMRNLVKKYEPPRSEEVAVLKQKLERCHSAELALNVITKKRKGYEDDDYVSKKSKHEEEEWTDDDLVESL
Sequence of CDK-activating kinase assembly factor MAT1/Cyclin-H/Cyclin-dependent kinase 7 (P50613 whole entry): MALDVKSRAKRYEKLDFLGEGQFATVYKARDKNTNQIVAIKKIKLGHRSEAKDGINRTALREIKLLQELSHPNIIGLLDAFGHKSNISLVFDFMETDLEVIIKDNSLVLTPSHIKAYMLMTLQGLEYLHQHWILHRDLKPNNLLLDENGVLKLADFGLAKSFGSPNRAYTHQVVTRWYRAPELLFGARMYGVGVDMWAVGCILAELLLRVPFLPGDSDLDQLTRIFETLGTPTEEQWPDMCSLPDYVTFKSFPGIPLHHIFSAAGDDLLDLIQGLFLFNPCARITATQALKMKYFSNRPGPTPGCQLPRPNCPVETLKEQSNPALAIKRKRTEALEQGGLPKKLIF
Sequence of CDK-activating kinase assembly factor MAT1/Cyclin-H/Cyclin-dependent kinase 7 (P51948 whole entry, further chain): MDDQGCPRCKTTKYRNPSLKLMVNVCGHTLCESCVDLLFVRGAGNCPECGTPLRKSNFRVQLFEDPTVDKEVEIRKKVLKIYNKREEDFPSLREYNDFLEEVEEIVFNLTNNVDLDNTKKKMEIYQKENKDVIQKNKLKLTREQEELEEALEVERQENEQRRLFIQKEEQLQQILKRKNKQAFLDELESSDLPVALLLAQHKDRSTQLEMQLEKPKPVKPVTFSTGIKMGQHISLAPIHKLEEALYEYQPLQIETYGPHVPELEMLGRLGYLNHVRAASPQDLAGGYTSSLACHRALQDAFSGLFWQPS

C[C@@H]1Cc2cnc(NC3CCOCC3)nc2CN1C(=O)[C@H]1CCN(C2COC2)C[C@@H]1c1ccccc1 [WO2022064009, Compound 159]
IC50: 575 nM

— BindingDB's records for patent WO2022064009 (JANSSEN PHARMACEUTICA NV, 2022)
